From article PMC8354611, “Orientin mediates protection against MRSA-induced pneumonia by inhibiting Sortase A” (Virulence, 2021)
Where “and” joins values, the source holds several entries; their conditions need not be identical. Identical values can stand only once. Marks after values point to notes of the source that are not given here.

Key:
WT-SrtA = target: T1, WT-SrtA (Staphylococcus aureus, UniProt Q2FV99); assay: Fluorescence quenching assay, WT-SrtA; format: binding, S. aureus USA300
T1 construct: 6xHis (N); made in house; host or cells: E. coli BL21(DE3), pET28a
Experimental: (§1) The sequence of srtA from S. aureus USA300 was retrieved from the GenBank database. The srtA gene lacking the transmembrane domain (N1–59) was amplified using PCR. The PCR product was then digested and cloned in the BamHI/XhoI restriction sites of the pET28a vector, yielding pET28a-srtA. The site-directed mutagenesis of T93A-SrtA, E105A-SrtA, and C184A-SrtA was conducted using pET28a-srtA using a Multi-Site Mutagenesis Kit (Transgen, Beijing, China). The expression vector was then transformed into the BL21(DE3) expression host, and the bacteria were cultured in BHI medium supplemented with kanamycin (50 µg/mL) at 37°C. In addition, isopropyl-β-D-thiogalactoside (1 mM) was used to induce recombinant SrtA for 4 h at 16°C. Whole-cell lysates of bacteria were prepared through ultrasonic crushing. Recombinant SrtAΔN59 or its mutants were purified using the 6 × His/Ni-NTA system refer to a previous study.
(§2) The binding constants (KA) of orientin to SrtA were determined using the fluorescence quenching assay. The spectra were recorded in the wavelength interval of 280–400 nm. The protocols used to perform the measurements have previously been described [[31–33]].

S. aureus USA300 [1] = assay: Growth curve assay; format: cell-based; settings: 200 µM orientin, growth curve in BHI
Experimental: (§3) The broth microdilution method was performed to determine the MIC of orientin for S. aureus USA300 as previously described. Briefly, orientin was diluted two-fold serially in a 96-well plate at concentrations ranging from 2 to 1024 µg/mL, followed by inoculation with S. aureus USA300 (10^6 CFU/mL) and incubation at 37°C for 16 h. After incubation, the absorbance (OD) value at 600 nm was measured. For the growth curve experiment, the overnight bacterial culture was diluted in fresh BHI (1:100) with various concentrations of orientin (0–200 µM). S. aureus ΔsrtA was used as the control group. Each sample was cultured at 37°C, and the OD600 was measured at 1 h intervals.

E105A = target: T2, E105A (Staphylococcus aureus, UniProt Q2FV99, E105A); assay: Fluorescence quenching assay, SrtA mutant E105A; format: binding, S. aureus USA300
T2 construct: 6xHis (N); made in house; host or cells: E. coli BL21(DE3), pET28a
Experimental: as §1, §2

S. aureus USA300 [2] = assay: Adherence of S. aureus to immobilized fibrinogen; format: cell-based; settings: WT S. aureus treated with 200 µM orientin
Experimental: The S. aureus USA300 was grown in BHI broth for 12 h and then diluted (1:100) in fresh BHI containing different concentrations of orientin, then continued to culture until an OD600 reached 0.5. The ∆srtA mutant was cultured under the same conditions as a positive control. Subsequently, the bacterial culture was added to a 96-well plate previously coated with bovine fibrinogen (20 µg/mL). Then, the sample was incubated for 2 h at 37°C, and 25% (v/v) formaldehyde was added to fix the adherent bacterial cells for 30 min after discarding the suspension. The formaldehyde was removed, and the plate was washed twice with PBS, following which, crystal violet was added to stain the cells for 20 min. The wells were gently washed with PBS and dried, and the OD value at 570 nm was measured.

S. aureus = assay: Pneumonia model experiment; format: in vivo, C57BL/6 J mice; settings: mice
Experimental: The pneumonia model was induced as previously described in 7-week-old female C57BL/6 J mice. For survival experiments, a group of 10 mice was infected with 30 µL of S. aureus culture (2 × 10^8 CFUs) via the intranasal route. An hour after infection, the mice were intraperitoneally injected with orientin (100 mg/kg) at intervals of 12 h. Similarly, mice in the control group were injected with sterile PBS containing 0.5% DMSO. The mice were monitored every 12 h for 96 h after administration to calculate the survival rate. For estimation of the bacterial count in the lung tissue and histopathological analysis, the mice were infected with 30 µL (1 × 10^8 CFUs) of S. aureus cultures, and the infection was allowed to progress for 2 d. The mice were then sacrificed, and the lungs were collected, weighed, and homogenized. Then, appropriate dilutions were plated on BHI-agar plates until a single colony appeared and counted. The lung tissues of mice in each group were aseptically separated and fixed in 10% formalin. The lung tissue sections were observed under an optical microscope after conventional hematoxylin and eosin (H&E) staining.

[3] = tested on: Staphylococcal protein A (SpA) anchoring to the cell wall; assay: FITC-IgG binding to Staphylococcal protein A (SpA); format: cell-based, S. aureus; settings: 200 µM orientin, compared to the WT group
Experimental: Overnight culture of S. aureus and S. aureus ΔsrtA was diluted 1:1000 in TSB medium, and different concentrations of orientin (0–200 µM) were added to the culture with shaking at 37°C until the logarithmic growth phase. The bacteria collected by centrifugation were washed thrice with PBS, after which the bacterial precipitate was resuspended with 50 µL of 1:200 diluted FITC-labeled rabbit IgG (Solarbio, Beijing, China). Then, the bacterial precipitate was incubated at ambient temperature for 30 min, and the harvested bacteria were rinsed thrice by PBS. Then, the bacteria were resuspended in 100 µL PBS and added to a black 96-well plate. The Multimode Microplate Reader (Tecan, Spark 20 M) was used to measure the fluorescence intensity at 490 nm for excitation and 520 nm for emission.

expression of SrtA = assay: Western blot analysis of SrtA expression; format: cell-based, S. aureus; settings: orientin 0, 25, 50, 100 or 200 µM
Experimental: An equal amount of protein extract was separated using SDS-PAGE, followed by transfer to the polyvinylidene difluoride (PVDF) membrane (GE Healthcare, UK). The membrane was incubated in 5% BSA overnight at 4°C. After washing with TBST (TBS + 1‰ Tween 20), the membrane was incubated with rabbit anti-SrtA polyclonal antibody (1:3000) at room temperature. After incubation for 2 h, the membrane was washed thrice and incubated with HRP-conjugated goat anti-rabbit IgG (diluted 1:10,000 in TBST) for 2 h. After washing thrice, the membrane was incubated with Super ECL Plus (US EVERBRIGHT, Suzhou, China) and visualized in an ECL detection system (GE Healthcare, UK). The cytoplasmic protein ClpP was treated in the same way as an internal control. Band quantification was performed using the software ImageQuant TL.

SrtA [4] = target: T3, SrtA (Staphylococcus aureus, UniProt Q2FV99); assay: FRET assay of SrtA inhibition (cleavage of Abz-LPATG-Dap(Dnp)-NH2); format: biochemical, S. aureus USA300
T3 construct: 6xHis (N); made in house; host or cells: E. coli BL21(DE3), pET28a
Experimental: Fluorescence resonance energy transfer (FRET) was detected the activity of orientin against SrtA, as previously described. The reaction mixture (300 µL) consisted of the reaction buffer (50 mM Tris-HCl, 5 mM CaCl2, 150 mM NaCl, pH 7.5), 4 µM purified SrtA, and various concentrations of orientin (0–200 µM). The sample was incubated at 37°C for 1 h, followed by the addition of substrate peptide (10 μM). After incubation for another hour at 37°C, the fluorescence intensity value was detected at the excitation and emission wavelengths of 350 nm and 495 nm, respectively.

D170A = assay: Fluorescence quenching assay, SrtA mutant D170A; format: binding, S. aureus USA300
S. aureus USA300 [5] = assay: Broth microdilution MIC; format: cell-based; settings: Staphylococcus aureus, USA300, 16 h
Experimental: as §3

C184A = target: T4, C184A (Staphylococcus aureus, UniProt Q2FV99, C184A); assay: Fluorescence quenching assay, SrtA mutant C184A; format: binding, S. aureus USA300
T4 construct: 6xHis (N); made in house; host or cells: E. coli BL21(DE3), pET28a
Experimental: as §1, §2

[6] = tested on: S. aureus internalization into A549 cells; assay: Invasion assay of S. aureus into A549 cells; format: cell-based; settings: S. aureus treated with 100 µM orientin, vs untreated WT, P < 0.001
Experimental: The A549 cells were routinely sub-cultured at 37°C with 5% CO2. Cells in the logarithmic growth phase were seeded in a 24-well plate at a density of 2.5 × 10^5 per well and cultured for 20 h. S. aureus was mixed with orientin ranging from 0 to 100 µM and cultured at 37°C until an OD600 of 1.0 was reached. Then, the cell culture medium was discarded, and the cells were resuspended in DMEM medium. After that, a bacterial suspension containing 2 × 10^7 CFU/mL was added to each well. After incubation for 2 h, 300 µg/mL gentamicin was added to stop the invasion. Then, the cells were lysed after washing with sterile PBS and spread on BHI agar plates to calculate the number of colonies in each sample.

S. aureus biofilm = assay: Crystal violet biofilm assay; format: cell-based; settings: 200 µM orientin, compared to the WT group (untreated S. aureus)
Experimental: After overnight culturing, S. aureus was diluted using fresh BHI by 1:100, and different concentrations of orientin ranging from 0 to 200 μM were added with shaking at 37°C to OD600 of 0.6. The bacterial culture (5 µL) was then added to BHI broth containing 1% glucose to a final volume of 200 µL and continue cultured for 18 h. Then, the medium was discarded carefully and washed three times with PBS. Then, the biofilms were stained with a 0.1% (w/v) crystal violet solution for 20 min at ambient temperature conditions. The crystal violet solution was discarded, and the wells were washed thrice with sterile PBS. After drying the plates, 95% ethanol was added into each well, and the absorbance at 570 nm was measured.

SrtA [7] = target: T3, SrtA; assay: Reversible inhibition assay of SrtA; format: biochemical, S. aureus USA300; settings: SrtA incubated with 10-fold IC50 of orientin, then diluted
Experimental: The 10-fold IC50 concentration of orientin was incubated with 100 µL of SrtA (150 µM) for 1 h at 37°C, followed by the addition of 9.9 mL reaction buffer. Then, 190 µL of the mixture was added to each well, and substrate peptide (10 μL) was added until a final concentration of 10 μM was achieved. A multifunctional microplate reader was used to record the fluorescence intensity at 350 nm for excitation and 495 nm for emission.

O=c1cc(-c2ccc(O)c(O)c2)oc2c([C@@H]3O[C@H](CO)[C@@H](O)[C@H](O)[C@H]3O)c(O)cc(O)c12 [orientin]
Kd (WT-SrtA): 14 µM
effect on S. aureus growth (S. aureus USA300 [1]): little inhibitory effect
Kd (E105A): 23.5 µM
adhesion of S. aureus to fibrinogen (S. aureus USA300 [2]): 33.10 ± 1.41%
number of viable S. aureus in the lung tissue (S. aureus; 100 mg/kg orientin, 2 d after infection, vs untreated group, P < 0.001): significantly reduced
lung histopathology (S. aureus; 100 mg/kg orientin, H&E staining): inflammatory symptoms were significantly reduced
survival rate (S. aureus; lethal dose of S. aureus intranasal, 100 mg/kg orientin intraperitoneally at intervals of 12 h, within 72 h): 60%
relative activity (fluorescence of FITC-IgG bound to SpA) [3]: 37.32 ± 1.84%
effect on the expression of SrtA (expression of SrtA): not to affect the expression of SrtA
IC50 (SrtA [4]): 50.4 ± 0.51 µM
KA (D170A): 5.37* 1 × 10^4 l/mol
MIC (S. aureus USA300 [5]): > 512 µg/mL
Kd (C184A): 32.1 µM
ability of S. aureus to invade A549 cells [6]: decreased significantly
biofilm biomass (S. aureus biofilm): 31.90 ± 0.25%
reversibility of SrtA inhibition (SrtA [7]): reversible inhibitor
activity of SrtA recovered (relative activity) (SrtA [7]; untreated SrtA = 100% activity): 84.77 ± 1.28% and 84.77%
